Assay results: patent publication US20100041089A1, “IMPROVED METHOD FOR DETECTING CHEMICAL […]” (priority 2006, published 2010)

Test system: yeast genes (expressed mRNA)
Test: DNA chip measurement of expressed mRNA of yeast genes after culture with a toxic chemical substance
Assay type: cell-based, Saccharomyces cerevisiae S288C
Conditions: for level of expressed mRNA in the presence of chemical substance / level in the absence of chemical substance: cultured two hours with the chemical substance; for The level of expressed mRNA in the presence of chemical substance/The level of expressed mRNA in the absence of chemical substance: cultured two hours with substance
Procedure, shortened: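 Expression is given as treated/untreated fluorescence ratio on a whole-genome yeast DNA chip, a ratio of two or more being significant. Log-phase S288C cultures in YPD at 25 °C received the chemical for 2 h at a dose that slows growth without killing. mRNA was reverse-transcribed with Cy3- or Cy5-dUTP.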

## Na2As [(1)]
Yeast gene YNL058C
  level of expressed mRNA in the presence of chemical substance / level in the absence of chemical substance: 2.0
Yeast gene YNL063W
  level of expressed mRNA in the presence of chemical substance / level in the absence of chemical substance: 0.9
Yeast gene YNL074C
  The level of expressed mRNA in the presence of chemical substance/The level of expressed mRNA in the absence of chemical substance: 0.9
Yeast gene YNL092W
  The level of expressed mRNA in the presence of chemical substance/The level of expressed mRNA in the absence of chemical substance: 1.3
Yeast gene YNL115C
  The level of expressed mRNA in the presence of chemical substance/The level of expressed mRNA in the absence of chemical substance: 0.7
Yeast gene YNL156C
  The level of expressed mRNA in the presence of chemical substance/The level of expressed mRNA in the absence of chemical substance: 1.1
Yeast gene YNL176C
  level of expressed mRNA in the presence of chemical substance / level in the absence of chemical substance: 1.1
Yeast gene YNL194C
  level of expressed mRNA in the presence of chemical substance / level in the absence of chemical substance: 1.6
Yeast gene YNL200C
  level of expressed mRNA in the presence of chemical substance / level in the absence of chemical substance: 1.0
Yeast gene YNL234W
  The level of expressed mRNA in the presence of chemical substance/The level of expressed mRNA in the absence of chemical substance: 1.1
Yeast gene YNL253W
  level of expressed mRNA in the presence of chemical substance / level in the absence of chemical substance: 1.3
Yeast gene YNL276C
  level of expressed mRNA in the presence of chemical substance / level in the absence of chemical substance: 1.3
Yeast gene YNL281W
  The level of expressed mRNA in the presence of chemical substance/The level of expressed mRNA in the absence of chemical substance: 1.0
Yeast gene YNL305C
  The level of expressed mRNA in the presence of chemical substance/The level of expressed mRNA in the absence of chemical substance: 0.9
Yeast gene YNR051C
  level of expressed mRNA in the presence of chemical substance / level in the absence of chemical substance: 0.7
Yeast gene YNR068C
  The level of expressed mRNA in the presence of chemical substance/The level of expressed mRNA in the absence of chemical substance: 1.2
Yeast gene YOL026C
  level of expressed mRNA in the presence of chemical substance / level in the absence of chemical substance: 1.2
Yeast gene YOL032W
  The level of expressed mRNA in the presence of chemical substance/The level of expressed mRNA in the absence of chemical substance: 1.3
Yeast gene YOL036W
  The level of expressed mRNA in the presence of chemical substance/The level of expressed mRNA in the absence of chemical substance: 0.8
Yeast gene YOL047C
  The level of expressed mRNA in the presence of chemical substance/The level of expressed mRNA in the absence of chemical substance: 1.4
Yeast gene YOL071W
  The level of expressed mRNA in the presence of chemical substance/The level of expressed mRNA in the absence of chemical substance: 1.3
Yeast gene YOL082W
  The level of expressed mRNA in the presence of chemical substance/The level of expressed mRNA in the absence of chemical substance: 1.0
Yeast gene YOL083W
  The level of expressed mRNA in the presence of chemical substance/The level of expressed mRNA in the absence of chemical substance: 1.1
Yeast gene YOL117W
  The level of expressed mRNA in the presence of chemical substance/The level of expressed mRNA in the absence of chemical substance: 1.0
Yeast gene YOL131W
  The level of expressed mRNA in the presence of chemical substance/The level of expressed mRNA in the absence of chemical substance: 1.0
Yeast gene YOL150C
  The level of expressed mRNA in the presence of chemical substance/The level of expressed mRNA in the absence of chemical substance: 4.1
Yeast gene YOL162W
  The level of expressed mRNA in the presence of chemical substance/The level of expressed mRNA in the absence of chemical substance: 2.0
Yeast gene YOR019W
  The level of expressed mRNA in the presence of chemical substance/The level of expressed mRNA in the absence of chemical substance: 2.9
Yeast gene YOR022C
  level of expressed mRNA in the presence of chemical substance / level in the absence of chemical substance: 1.3
Yeast gene YOR087W
  level of expressed mRNA in the presence of chemical substance / level in the absence of chemical substance: 0.7
Yeast gene YOR138C
  level of expressed mRNA in the presence of chemical substance / level in the absence of chemical substance: 0.8
Yeast gene YOR197W
  The level of expressed mRNA in the presence of chemical substance/The level of expressed mRNA in the absence of chemical substance: 0.8
Yeast gene YOR253W
  level of expressed mRNA in the presence of chemical substance / level in the absence of chemical substance: 0.9
Yeast gene YOR267C
  level of expressed mRNA in the presence of chemical substance / level in the absence of chemical substance: 0.8
Yeast gene YOR325W
  level of expressed mRNA in the presence of chemical substance / level in the absence of chemical substance: 1.0
Yeast gene YPL005W
  level of expressed mRNA in the presence of chemical substance / level in the absence of chemical substance: 1.0
Yeast gene YPL087W
  The level of expressed mRNA in the presence of chemical substance/The level of expressed mRNA in the absence of chemical substance: 1.0
Yeast gene YPL150W
  level of expressed mRNA in the presence of chemical substance / level in the absence of chemical substance: 0.7
Yeast gene YPL152W
  level of expressed mRNA in the presence of chemical substance / level in the absence of chemical substance: 1.4
Yeast gene YPL168W
  level of expressed mRNA in the presence of chemical substance / level in the absence of chemical substance: 1.1
Yeast gene YPL180W
  level of expressed mRNA in the presence of chemical substance / level in the absence of chemical substance: 0.9
Yeast gene YPL188W
  level of expressed mRNA in the presence of chemical substance / level in the absence of chemical substance: 1.3
Yeast gene YPL196W
  The level of expressed mRNA in the presence of chemical substance/The level of expressed mRNA in the absence of chemical substance: 1.3
Yeast gene YPL206C
  The level of expressed mRNA in the presence of chemical substance/The level of expressed mRNA in the absence of chemical substance: 1.0
Yeast gene YPL221W
  level of expressed mRNA in the presence of chemical substance / level in the absence of chemical substance: 0.9
Yeast gene YPL222W
  The level of expressed mRNA in the presence of chemical substance/The level of expressed mRNA in the absence of chemical substance: 0.9
Yeast gene YPL225W
  level of expressed mRNA in the presence of chemical substance / level in the absence of chemical substance: 1.3
Yeast gene YPR023C
  The level of expressed mRNA in the presence of chemical substance/The level of expressed mRNA in the absence of chemical substance: 1.2
Yeast gene YPR049C
  level of expressed mRNA in the presence of chemical substance / level in the absence of chemical substance: 1.0
Yeast gene YPR146C
  level of expressed mRNA in the presence of chemical substance / level in the absence of chemical substance: 0.8
Yeast gene YPR148C
  level of expressed mRNA in the presence of chemical substance / level in the absence of chemical substance: 1.1
Yeast gene YPR151C
  The level of expressed mRNA in the presence of chemical substance/The level of expressed mRNA in the absence of chemical substance: 2.3
Yeast gene YPR172W
  level of expressed mRNA in the presence of chemical substance / level in the absence of chemical substance: 1.1
